Patent US20100068204A1, “4-ARYLOXYQUINOLIN-2(1H)-ONES AS MTOR KINASE AND PI3 KINASE INHIBITORS, FOR USE AS ANTI-CANCER AGENTS” (Wyeth, priority 2008, published 2010)

Tests used:
human TOR (FLAG-TOR) = human TOR (FLAG-TOR) (Homo sapiens, UniProt P42345); experiment: mTOR enzyme assay (DELFIA format, purified enzyme); type: biochemical; settings: 800 ng/ml FLAG-TOR, 100 μM ATP, 1.25 μM His6-S6K; read-out: mTOR Kinase IC50
PI3Kα = PI3Kα (Homo sapiens, UniProt P42336); experiment: PI3Kα fluorescence polarization assay; type: biochemical; settings: 20 μM PIP2, 25 μM ATP
Method in brief: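 Kinase reaction in 20 mM HEPES pH 7.5, 2 mM MgCl2, 0.05% CHAPS with final 20 μM diC8-PIP2 and 25 μM ATP, 30-60 min at room temperature. Stopped with 10 nM TAMRA-labelled probe plus 2.5 uM GST-murine GRP; fluorescence polarization read after 90-110 minutes.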

[1] = test system: LNCap prostate tumor cells; experiment: In vitro cell growth assay (MTS), LNCap; type: cell-based, human; settings: Homo sapiens, LNCaP, 72 h, three days after drug treatment
Method in brief: (§1)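 Tumor cells plated ~3000/well; inhibitors in DMSO added one day later (final DMSO 0.25%). After three days of treatment, viable cell density read by MTS conversion, absorbance at 490 nm. Effect expressed relative to untreated control growth.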

[2] = test system: MDA468 breast tumor cells; experiment: In vitro cell growth assay (MTS), MDA468; type: cell-based, human; settings: Homo sapiens, 72 h, three days after drug treatment
Method in brief: as §1

Chain of PI3Kα (P42336 whole entry, species assumed): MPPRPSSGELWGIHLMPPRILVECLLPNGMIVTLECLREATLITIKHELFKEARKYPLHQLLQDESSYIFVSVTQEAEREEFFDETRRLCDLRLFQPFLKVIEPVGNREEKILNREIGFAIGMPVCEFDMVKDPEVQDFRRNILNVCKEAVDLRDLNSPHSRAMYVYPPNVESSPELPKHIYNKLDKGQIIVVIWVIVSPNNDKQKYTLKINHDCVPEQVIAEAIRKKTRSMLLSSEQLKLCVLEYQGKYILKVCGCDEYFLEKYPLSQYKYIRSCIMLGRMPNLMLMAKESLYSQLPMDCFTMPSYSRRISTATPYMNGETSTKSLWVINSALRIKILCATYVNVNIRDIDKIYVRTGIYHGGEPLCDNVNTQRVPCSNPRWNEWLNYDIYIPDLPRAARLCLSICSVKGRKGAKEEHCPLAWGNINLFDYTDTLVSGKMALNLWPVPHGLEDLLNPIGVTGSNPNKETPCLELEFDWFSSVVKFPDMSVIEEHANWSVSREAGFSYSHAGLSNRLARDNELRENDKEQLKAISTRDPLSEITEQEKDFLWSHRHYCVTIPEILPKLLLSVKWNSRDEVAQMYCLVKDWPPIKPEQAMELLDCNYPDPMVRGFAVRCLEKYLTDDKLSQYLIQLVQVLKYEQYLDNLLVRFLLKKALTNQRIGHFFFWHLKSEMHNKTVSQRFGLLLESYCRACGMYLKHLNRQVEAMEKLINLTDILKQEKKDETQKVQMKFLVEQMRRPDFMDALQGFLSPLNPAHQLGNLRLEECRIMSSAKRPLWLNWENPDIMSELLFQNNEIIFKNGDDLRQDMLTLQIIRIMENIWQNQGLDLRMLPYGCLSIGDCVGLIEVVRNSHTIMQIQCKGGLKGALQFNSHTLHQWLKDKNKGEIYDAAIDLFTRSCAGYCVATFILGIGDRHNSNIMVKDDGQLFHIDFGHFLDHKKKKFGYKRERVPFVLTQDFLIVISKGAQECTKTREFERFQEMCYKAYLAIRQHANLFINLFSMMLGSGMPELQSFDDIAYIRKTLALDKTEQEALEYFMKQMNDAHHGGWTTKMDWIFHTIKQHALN
Chain of PI3Kα (P27986 whole entry partner, species assumed): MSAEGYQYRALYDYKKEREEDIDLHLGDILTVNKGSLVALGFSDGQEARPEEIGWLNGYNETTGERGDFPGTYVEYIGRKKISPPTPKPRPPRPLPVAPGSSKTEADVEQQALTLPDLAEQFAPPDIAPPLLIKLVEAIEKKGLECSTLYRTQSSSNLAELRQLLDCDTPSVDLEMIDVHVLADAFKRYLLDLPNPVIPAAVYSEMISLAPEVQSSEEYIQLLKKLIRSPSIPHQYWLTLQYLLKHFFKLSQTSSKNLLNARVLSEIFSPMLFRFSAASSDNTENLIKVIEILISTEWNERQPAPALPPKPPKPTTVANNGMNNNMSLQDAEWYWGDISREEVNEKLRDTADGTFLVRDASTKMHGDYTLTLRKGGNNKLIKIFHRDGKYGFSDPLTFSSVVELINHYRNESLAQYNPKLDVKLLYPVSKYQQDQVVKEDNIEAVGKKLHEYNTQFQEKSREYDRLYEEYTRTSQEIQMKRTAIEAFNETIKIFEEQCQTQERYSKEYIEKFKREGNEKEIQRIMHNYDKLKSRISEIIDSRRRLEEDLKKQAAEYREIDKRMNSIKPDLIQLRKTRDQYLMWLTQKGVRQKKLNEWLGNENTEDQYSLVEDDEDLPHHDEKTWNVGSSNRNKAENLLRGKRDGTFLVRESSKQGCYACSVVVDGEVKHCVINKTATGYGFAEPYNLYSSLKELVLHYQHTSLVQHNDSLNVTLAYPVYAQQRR

Row | SMILES | IC50 (human TOR (FLAG-TOR)) [µM] | IC50 (PI3Kα) [µM] | IC50 [1] [µM] | IC50 [2] [µM]
1 | O=c1cc(Oc2cccc(-c3ccsc3)c2)c2ccccc2[nH]1 | 0.63 | 0.63 | 30 | 60
2 | Nc1cccc(Oc2cc(=O)[nH]c3cc(Cl)ccc23)c1 | 0.6 | 6.73 | 4.5 | > 60
3 | COc1ncc(-c2cccc(Oc3cc(=O)[nH]c4ccccc34)c2)c(OC)n1 | 0.28 | > 10 | > 60 | 38
4 | O=c1cc(Oc2cccc3ccccc23)c2ccccc2[nH]1 | 0.23 | > 10 | > 60 | > 60
5 | CC(C)(C)OC(=O)N1CCN(c2ccc(-c3cccc(Oc4cc(=O)[nH]c5ccccc45)c3)cn2)CC1 | 3.7 | > 10 | > 60 | 18
6 | COc1ccccc1Oc1cc(=O)[nH]c2ccccc12 | 9.1 | 4.68 | > 60 | > 60
7 | O=c1cc(Oc2cccc(NCc3ccc(-c4cccc(CO)n4)cc3)c2)c2ccccc2[nH]1 | 0.09 | 3.92 | 4.3 | 10
8 | O=c1cc(Oc2cccc(-c3ccnc(N4CCNCC4)c3)c2)c2ccccc2[nH]1 | 0.55 | 15 | 9 | 8.5
9 | CN(Cc1cccnc1)c1cccc(Oc2cc(=O)[nH]c3ccccc23)c1 [drawing 372] | 0.42 | 1.96 | 13 | 20
10 | O=c1cc(Oc2cccc(-c3ccc(NC4CCN(Cc5ccncc5)CC4)cc3)c2)c2ccccc2[nH]1 | 0.12 | > 10 | 6.7 | 13
11 | O=c1cc(Oc2cccc(-c3ccc(NCc4cccnc4)cc3)c2)c2ccccc2[nH]1 | 1.3 | 7 | > 60 | > 60
12 | CN(C)c1ncccc1CNc1cccc(Oc2cc(=O)[nH]c3ccccc23)c1 | 0.31 | > 10 | 5 | 12
13 | Nc1ccc2[nH]c(=O)cc(Oc3ccccc3)c2c1 | > 20 | 2.57 | > 60 | > 60
14 | O=c1cc(Oc2ccccc2)c2cc(-c3cc[nH]n3)ccc2[nH]1 | 11.5 | 1.02 | > 60 | 40
15 | Cn1cc(-c2ccc(Oc3cc(=O)[nH]c4ccccc34)cc2)cn1 | 1.98 | 2.28 | 1.3 | > 60
16 | O=c1cc(Oc2ccccc2)c2ccc(Br)cc2[nH]1 | > 20 | 5.39 | > 60 | > 60
17 | CN(C)CCCNC(=O)c1cccc(-c2cccc(Oc3cc(=O)[nH]c4ccccc34)c2)c1 | 0.5 | > 10 | 4.3 | 10
18 | O=c1cc(Oc2cccc(NCC3CCN(Cc4ccccc4)CC3)c2)c2ccccc2[nH]1 | 0.18 | 9.54 | 3 | 4.1
19 | CS(=O)(=O)Nc1ccc(-c2cccc(Oc3cc(=O)[nH]c4ccccc34)c2)cc1 | 0.27 | > 10 | 5.8 | 26
20 | CN(C)CC(=O)Nc1ccc2[nH]c(=O)cc(Oc3ccccc3)c2c1 | > 20 | > 10 | > 60 | > 60
21 | CC(Nc1cccc(Oc2cc(=O)[nH]c3ccccc23)c1)c1cccnc1 (stereo not shown) | 0.19 | 3.58 | 3.3 | 11
22 | CC(Nc1cccc(Oc2cc(=O)[nH]c3ccccc23)c1)c1ccncc1 (stereo not shown) | 0.14 | 7.52 | 3.1 | 11
23 | O=c1cc(Oc2ccc(Br)cc2)c2ccccc2[nH]1 | 2.2 | 4.11 | > 60 | 50
24 | CC(C)(C)OC(=O)N1CC=C(c2cccc(Oc3cc(=O)[nH]c4ccccc34)c2)CC1 | 0.65 | 9.5 | 13 | 32
25 | O=c1cc(Oc2cccc(-c3ccco3)c2)c2ccccc2[nH]1 | 0.4 | > 10 | > 60 | 0.7
26 | O=C(NCCO)Nc1ccc(-c2cccc(Oc3cc(=O)[nH]c4ccccc34)c2)cc1 | 0.25 | 8.48 | 60 | > 60
27 | O=c1cc(Oc2cccc(NCc3cnc4[nH]ccc4c3)c2)c2ccccc2[nH]1 | 0.12 | 3.42 | 4.9 | 13
28 | CN(C)CCNc1ccc(-c2cccc(Oc3cc(=O)[nH]c4ccccc34)c2)cc1 | 0.18 | 5 | 4.8 | 8
